Here are results for three compounds from ChEMBL document CHEMBL2429811, “Novel selective and potent inhibitors of malaria parasite dihydroorotate dehydrogenase: discovery and optimization of dihydrothiophenone derivatives” (J Med Chem, 2013).

Series [1] concerns the target Dihydroorotate dehydrogenase (quinone), mitochondrial (Homo sapiens, UniProt Q02127). In words: Inhibition of N-terminal His10-tagged human DHODH (Met30 to Arg396) expressed in Escherichia coli BL21 (DE3) using dihydroorotate as substrate measured every 30 secs for 6 mins by DCIP dye-based assay.
In series [2] the test system is Plasmodium falciparum. In words: microbe, parasite or virus in culture. Particulars: 3D7, 72 h.
Description: Antiplasmodial activity against chloroquine-sensitive Plasmodium falciparum 3D7 infected in erythrocytes assessed as parasite growth inhibition after 72 hrs by SYBR green 1 dye-based fluorometric analysis
Series [3] relates to Plasmodium falciparum. In words: microbe, parasite or virus in culture. The note with it: Dd2, 72 h.
Description: Antiplasmodial activity against chloroquine-resistant Plasmodium falciparum Dd2 infected in erythrocytes assessed as parasite growth inhibition after 72 hrs by SYBR green 1 dye-based fluorometric analysis
In series [4] the target is T1, Dihydroorotate dehydrogenase (Plasmodium falciparum, UniProt Q54A96).
T1 sequence (Q54A96 whole entry): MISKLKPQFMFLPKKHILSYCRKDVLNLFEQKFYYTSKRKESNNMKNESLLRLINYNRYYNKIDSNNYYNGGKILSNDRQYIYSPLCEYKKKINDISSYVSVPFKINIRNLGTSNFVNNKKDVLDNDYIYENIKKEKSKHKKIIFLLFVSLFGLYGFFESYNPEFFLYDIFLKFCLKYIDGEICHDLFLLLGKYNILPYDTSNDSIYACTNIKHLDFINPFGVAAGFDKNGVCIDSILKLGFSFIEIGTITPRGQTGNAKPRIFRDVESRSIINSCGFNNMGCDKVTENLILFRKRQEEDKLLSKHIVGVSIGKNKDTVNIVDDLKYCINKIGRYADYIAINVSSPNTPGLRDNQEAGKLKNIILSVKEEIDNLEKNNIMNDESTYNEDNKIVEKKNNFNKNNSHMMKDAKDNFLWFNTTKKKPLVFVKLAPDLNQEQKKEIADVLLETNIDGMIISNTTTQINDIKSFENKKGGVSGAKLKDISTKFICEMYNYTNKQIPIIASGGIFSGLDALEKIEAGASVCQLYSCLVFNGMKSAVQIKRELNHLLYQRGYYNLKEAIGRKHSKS
In words: Inhibition of Plasmodium falciparum DHODH (Phe158 to Ser569) expressed in Escherichia coli BL21 using dihydroorotate as substrate measured every 30 secs for 6 mins by DCIP dye-based assay.

Series [5] is described as follows: Oral bioavailability in Sprague-Dawley rat at 10 mg/kg. In kind it is ADME, organism-based. Particulars: in vivo.
Series [6] in a line: Half life in Sprague-Dawley rat at 10 mg/kg, po. In kind it is ADME, organism-based. The arrangement: dose 10 mg/kg, route oral. The note with it: in vivo.
Series [7] is described as follows: Tmax in Sprague-Dawley rat at 10 mg/kg, po. The arrangement: dose 10 mg/kg, route oral. Particulars: in vivo. In kind it is ADME, organism-based.
Series [8] is described as follows: Cmax in Sprague-Dawley rat at 10 mg/kg, po. In kind it is ADME, organism-based. The arrangement: dose 10 mg/kg, route oral. The note with it: in vivo.
Series [9] in a line: Volume of distribution in Sprague-Dawley rat at 1 mg/kg, iv. In kind it is ADME, organism-based. The arrangement: dose 1 mg/kg, route intravenous. The note with it: in vivo.
The nature of series [10]: Clearance in Sprague-Dawley rat at 1 mg/kg, iv. The arrangement: dose 1 mg/kg, route intravenous. The note with it: in vivo. The format is ADME, organism-based.
Series [11] can be described thus: Half life in Sprague-Dawley rat at 1 mg/kg, iv. The format is ADME, organism-based. Particulars: in vivo. The arrangement: dose 1 mg/kg, route intravenous.
Series [12] is described as follows: AUC (0 to last) in Sprague-Dawley rat at 10 mg/kg, po. In kind it is ADME, organism-based. The arrangement: time 0 - last, dose 10 mg/kg, route oral. The note with it: plasma.

Chain of Dihydroorotate dehydrogenase (quinone), mitochondrial (Q02127 whole entry): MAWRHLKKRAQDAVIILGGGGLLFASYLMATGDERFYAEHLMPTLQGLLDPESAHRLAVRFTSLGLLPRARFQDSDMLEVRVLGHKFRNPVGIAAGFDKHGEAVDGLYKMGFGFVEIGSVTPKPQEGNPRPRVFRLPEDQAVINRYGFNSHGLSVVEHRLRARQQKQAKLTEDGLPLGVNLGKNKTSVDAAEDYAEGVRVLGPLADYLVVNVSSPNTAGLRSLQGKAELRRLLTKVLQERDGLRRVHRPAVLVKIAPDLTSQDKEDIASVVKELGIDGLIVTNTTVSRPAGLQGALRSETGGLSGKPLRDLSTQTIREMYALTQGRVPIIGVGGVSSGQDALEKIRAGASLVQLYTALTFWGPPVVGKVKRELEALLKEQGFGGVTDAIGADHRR

As to `CCOC(=O)C1=C(Nc2ccc(Cl)cc2)SCC1=O`, the IC50 in series [1] is above 50000 nM; in series [2] it was above 20000 nM; in series [3], above 20000 nM; in series [4] it was 1110 nM.

For the compound `CCOC(=O)C1=C(Nc2ccc3ccccc3c2)OCC1=O`, the IC50 in series [1] is above 50000 nM; in [2] it was 15 nM; in series [3], 18 nM; in series [4], 6 nM. For the same compound, the bioavailability in series [5] is 40%. In addition, the half-life in series [6] was 45 min; in [11], 15.6 min. Further, the Tmax in [7] was determined as 17.4 min. In series [8], this compound gave a Cmax of 609 ng/mL. Moreover, the Vd in series [9] turned out to be 1.91 L/kg. The compound further returned a clearance in [10] of 84.7 mL/min/kg. Besides, the AUC(0-t) in [12] is 791 ng·h/mL.

As to `CCOC(=O)C1=C(Nc2ccc3ccccc3c2)SCC1=O`, the IC50 in series [1] is above 50000 nM; in series [2], 77 nM; in series [3], 57 nM; in [4] it was 20 nM. Further, the bioavailability in series [5] was determined as 3.02%. Also, the half-life in series [6] is 154 min; in series [11] it was 18 min. Besides, the Tmax in series [7] is 15 min. In series [8], this compound registered a Cmax of 25.5 ng/mL. Besides, the distribution volume (Vd) in series [9] is 3.35 L/kg. The compound further came in with a clearance in series [10] of 129 mL/min/kg. This compound also returned an AUC(0-t) in series [12] of 39.3 ng·h/mL.

As a reminder, the IC50 is the midpoint of a concentration-inhibition curve. Low values mean greater potency, high ones weaker potency. The bioavailability is dose-corrected exposure relative to a reference, in per cent. One may read the half-life as how long it takes for the measured level to halve. The low end stands for rapid decline, the high end for slow decline. Usually Tmax stands for the time from dosing to the highest level. For orientation: Cmax means the highest concentration seen after dosing. Usually Vd stands for the apparent volume that relates the amount in the body to the concentration in plasma or blood. The low end stands for confinement near the circulation, the high end for extensive tissue distribution. Broadly, the clearance is a measure of how efficiently the substance is removed, as volume per time. One may read the AUC(0-t) as exposure summed from dosing to a finite time, without extrapolation to infinity. A high value points to more exposure.
